Tests used:
MMP-1 = target: T1, MMP-1 (Homo sapiens, UniProt P03956); experiment: Selectivity against human off-targets: MMP-1; assay type: biochemical; conditions: at 100 μM; read-out: Inhibition [%] MMP-1
T1 sequence (P03956 100-469): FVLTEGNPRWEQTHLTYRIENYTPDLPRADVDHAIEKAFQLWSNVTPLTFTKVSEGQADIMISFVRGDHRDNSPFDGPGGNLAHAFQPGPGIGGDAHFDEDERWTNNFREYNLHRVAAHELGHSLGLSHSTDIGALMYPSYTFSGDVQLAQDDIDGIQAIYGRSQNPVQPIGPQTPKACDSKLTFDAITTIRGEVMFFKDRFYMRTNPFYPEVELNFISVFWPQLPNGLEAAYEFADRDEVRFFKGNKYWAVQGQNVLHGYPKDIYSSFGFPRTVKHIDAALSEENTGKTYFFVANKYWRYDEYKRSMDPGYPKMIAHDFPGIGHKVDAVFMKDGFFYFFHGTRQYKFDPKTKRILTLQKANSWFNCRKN
Description: (§1) The inhibition of zinc-containing human enzymes is described frequently for LasB inhibitors and poses a serious difficulty in the development of selective compounds. Particularly, the inhibition of matrix metalloproteases (MMPs) should be avoided. To further investigate this issue, three derivatives (the compounds of examples 1, 5 and 8) have been tested for their selectivity against several human off-targets, including six MMPs, ADAM17 (TACE), HDAC-3 and HDAC-8 (Table 4). The selectivity of the compounds is particularly high for MMPs and HDACs, whereas the inhibition of ADAM17 was considerably stronger.

Cytotoxicity HepG2 = assay type: cell-based; conditions: human; HepG2
Experimental: (§2) The compounds of examples 1 and 5 were not toxic against the cell lines HepG2, HEK293 and A549 (Table 5). Additionally, the inhibitory effect against P. aeruginosa PA14 was evaluated to exclude an antibacterial effect of the compounds of the present invention. This is important as it was the aim to target virulence and not viability of the bacteria. […]

P. aeruginosa PA14 = experiment: PA14 inhibition (MIC, antibacterial effect); assay type: cell-based; conditions: Pseudomonas aeruginosa, PA14; read-out: MIC PA14
Experimental: as §2

MMP-2 = target: T2, MMP-2 (Homo sapiens, UniProt P08253); experiment: Selectivity against human off-targets: MMP-2; assay type: biochemical; conditions: at 100 μM; read-out: Inhibition [%] MMP-2
T2 sequence (P08253 110-660): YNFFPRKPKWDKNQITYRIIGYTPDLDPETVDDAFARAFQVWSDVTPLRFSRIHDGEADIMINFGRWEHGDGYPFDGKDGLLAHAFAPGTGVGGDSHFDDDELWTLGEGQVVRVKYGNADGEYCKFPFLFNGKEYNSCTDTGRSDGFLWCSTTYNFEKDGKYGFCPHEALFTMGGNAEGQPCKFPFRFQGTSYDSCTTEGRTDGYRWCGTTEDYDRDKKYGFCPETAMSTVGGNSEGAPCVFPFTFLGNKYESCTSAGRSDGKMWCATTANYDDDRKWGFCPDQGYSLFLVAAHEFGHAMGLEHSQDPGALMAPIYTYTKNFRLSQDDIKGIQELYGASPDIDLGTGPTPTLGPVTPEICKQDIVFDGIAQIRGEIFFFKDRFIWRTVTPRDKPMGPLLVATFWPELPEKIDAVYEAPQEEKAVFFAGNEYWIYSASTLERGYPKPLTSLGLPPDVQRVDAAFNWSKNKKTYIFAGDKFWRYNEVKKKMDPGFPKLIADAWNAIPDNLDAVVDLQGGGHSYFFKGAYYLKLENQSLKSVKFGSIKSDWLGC
Description: as §1

COX-1 = COX-1 (Homo sapiens, UniProt P23219); experiment: Selectivity against off-targets: COX-1; assay type: biochemical
LasB = LasB (Pseudomonas aeruginosa, UniProt Q02RJ6); experiment: biochemical; set-up: species or system P. aeruginosa; conditions: IC50 against LasB (Table 16), heteropentacycles and benzannulated heteropentacycles
Cytotoxicity A549 = assay type: cell-based; conditions: human; A549
Experimental: as §2

ADAM17 (TACE) = ADAM17 (TACE) (Homo sapiens, UniProt P78536); experiment: Selectivity against human off-targets: ADAM17 (TACE); assay type: biochemical; conditions: at 100 μM
Cytotoxicity HEK293 = assay type: cell-based; conditions: human; HEK293
Experimental: as §2

MMP-3 = MMP-3 (Homo sapiens, UniProt P08254); experiment: Selectivity against human off-targets: MMP-3; assay type: biochemical; conditions: at 100 μM; read-out: Inhibition [%] MMP-3
Description: as §1

Chain of COX-1 (P23219 24-599): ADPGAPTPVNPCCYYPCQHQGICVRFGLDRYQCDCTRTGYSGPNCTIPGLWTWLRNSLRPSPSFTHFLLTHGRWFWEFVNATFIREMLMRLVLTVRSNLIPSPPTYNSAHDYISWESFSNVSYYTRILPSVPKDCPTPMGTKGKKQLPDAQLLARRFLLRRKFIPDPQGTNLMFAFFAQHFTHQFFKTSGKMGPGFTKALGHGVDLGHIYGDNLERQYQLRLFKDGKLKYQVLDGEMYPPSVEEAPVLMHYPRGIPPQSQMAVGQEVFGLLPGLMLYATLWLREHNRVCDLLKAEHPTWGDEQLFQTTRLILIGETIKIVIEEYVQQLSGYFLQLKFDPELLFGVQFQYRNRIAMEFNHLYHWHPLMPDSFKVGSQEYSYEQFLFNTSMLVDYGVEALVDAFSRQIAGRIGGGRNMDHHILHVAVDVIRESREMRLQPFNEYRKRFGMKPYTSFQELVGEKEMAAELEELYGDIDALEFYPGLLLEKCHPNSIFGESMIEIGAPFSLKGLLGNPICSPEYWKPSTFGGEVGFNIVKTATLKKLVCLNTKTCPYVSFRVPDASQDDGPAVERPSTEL
Chain of LasB (Q02RJ6 198-498): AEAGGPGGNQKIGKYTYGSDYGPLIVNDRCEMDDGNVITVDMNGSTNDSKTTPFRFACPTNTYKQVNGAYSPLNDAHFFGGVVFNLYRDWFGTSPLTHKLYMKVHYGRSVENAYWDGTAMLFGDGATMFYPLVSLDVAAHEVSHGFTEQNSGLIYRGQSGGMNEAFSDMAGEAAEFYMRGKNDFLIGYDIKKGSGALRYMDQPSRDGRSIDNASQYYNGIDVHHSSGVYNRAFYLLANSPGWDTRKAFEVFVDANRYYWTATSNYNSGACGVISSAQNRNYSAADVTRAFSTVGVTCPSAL
Chain of ADAM17 (TACE) (P78536 215-824): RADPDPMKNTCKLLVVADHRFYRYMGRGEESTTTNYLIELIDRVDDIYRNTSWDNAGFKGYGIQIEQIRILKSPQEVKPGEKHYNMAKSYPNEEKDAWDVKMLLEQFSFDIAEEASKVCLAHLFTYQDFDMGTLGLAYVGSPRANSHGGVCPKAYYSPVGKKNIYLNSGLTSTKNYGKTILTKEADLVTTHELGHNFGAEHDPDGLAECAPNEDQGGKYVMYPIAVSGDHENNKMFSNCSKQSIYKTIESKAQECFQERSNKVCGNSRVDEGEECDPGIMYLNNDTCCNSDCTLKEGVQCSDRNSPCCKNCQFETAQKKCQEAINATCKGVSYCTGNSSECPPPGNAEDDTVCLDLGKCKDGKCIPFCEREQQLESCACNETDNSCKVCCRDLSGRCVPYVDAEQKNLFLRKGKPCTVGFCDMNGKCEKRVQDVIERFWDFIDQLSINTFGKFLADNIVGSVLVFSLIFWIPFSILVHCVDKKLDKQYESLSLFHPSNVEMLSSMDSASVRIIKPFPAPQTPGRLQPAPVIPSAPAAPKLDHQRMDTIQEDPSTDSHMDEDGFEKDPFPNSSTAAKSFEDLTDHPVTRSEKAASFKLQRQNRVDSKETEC
Chain of MMP-3 (P08254 100-477): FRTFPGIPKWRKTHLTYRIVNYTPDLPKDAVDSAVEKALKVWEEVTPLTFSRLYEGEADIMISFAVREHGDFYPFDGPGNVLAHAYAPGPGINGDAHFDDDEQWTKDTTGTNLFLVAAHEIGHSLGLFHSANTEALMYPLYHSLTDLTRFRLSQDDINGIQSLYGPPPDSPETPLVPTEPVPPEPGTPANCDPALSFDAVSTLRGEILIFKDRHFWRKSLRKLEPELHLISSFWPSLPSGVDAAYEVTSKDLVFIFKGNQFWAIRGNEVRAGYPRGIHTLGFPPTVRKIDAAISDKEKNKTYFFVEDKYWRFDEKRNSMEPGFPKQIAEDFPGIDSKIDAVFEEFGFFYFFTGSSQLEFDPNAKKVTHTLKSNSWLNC

CC(C)CC(C(=O)N[C@H](c1cn(-c2ccc(Cl)c(Cl)c2)nn1)C(C)C)P(=O)(O)O (mixture of isomers) [Example 170, (1-(((S)-1-(1-(3,4-dichlorophenyl)-1H-1,2,3-triazol-4-yl)-2-methylpropyl)amino)-4-methyl-1-oxopentan-2-yl)phosphonic acid]
inhibition at 100 µM (MMP-1): 11%
IC50 (Cytotoxicity HepG2): > 100 µM
MIC (P. aeruginosa PA14): > 100 µM
inhibition at 100 µM (MMP-2): < 10%
inhibition at 100 µM (COX-1): < 10%
IC50 (LasB): 60 ± 3 µM
IC50 (Cytotoxicity A549): > 100 µM
inhibition at 100 µM (ADAM17 (TACE)): < 10%
IC50 (Cytotoxicity HEK293): > 100 µM
inhibition at 100 µM (MMP-3): < 10%

Reference: patent US20230321123A1, “INHIBITORS OF PSEUDOMONAS AERUGINOSA VIRULENCE FACTOR LasB” (Helmholtz-Zentrum Für Infektionsforschung GmbH, priority 2020, published 2023)
